From patent US7056945B1, “Selective inhibition of neuronal nitric oxide synthase” (priority 2002, dated 2006)

Experiments:
wild type nNOS = wild type nNOS (Rattus norvegicus, UniProt P29476); test: Ki for inhibition of wild type nNOS; assay type: biochemical
Excerpt: (§1) We next tested this hypothesis by producing D597N nNOS and N368D eNOS mutant proteins.

D597N nNOS mutant = target: T1, D597N nNOS mutant (Rattus norvegicus, UniProt P29476, D597N); test: Ki for inhibition of D597N nNOS mutant; assay type: biochemical
T1 construct: made in house
Excerpt: as §1

N368D eNOS mutant = N368D eNOS mutant (Bos taurus, UniProt P29473, N368D); test: Ki for inhibition of N368D eNOS mutant; assay type: biochemical; conditions: Asn368 replaced with Asp in eNOS (N368D eNOS mutant)
Excerpt: as §1

NOS = conditions: cited from earlier work
all three NOS isoforms = conditions: similar for all three NOS isoforms; cited from earlier work

NC(=O)[C@@H]1C[C@@H](N)CN1C(=O)[C@@H](N)CCC/N=C(\N)N[N+](=O)[O-] [DIP3, L-N^□-nitroarginine-(4R)-amino-L-proline amide]
Ki (wild type nNOS): 0.097 µM
Ki (D597N nNOS mutant): 21 µM
Ki (N368D eNOS mutant): 5.1 µM

N=C(NCCC[C@H](N)C(=O)O)N[N+](=O)[O-] [L-NNA, L-N^ω-nitroarginine]
potency (NOS; L-NNA bound in the active site of eNOS (FIG. 1C legend)): low nM
selectivity between NOS isoforms (NOS): poor selectivity

N=C(N)NCCC[C@H](N)C(=O)O [L-arginine]
Km (all three NOS isoforms): low μM range
